Literature values as cited in US6703389B2, “Method of treating chronic pain” (Pharmacia & Upjohn Company, priority 1999, dated 2004).

Columns and labels:
[1] = tested on: norepinephrine reuptake compared to serotonin reuptake; conditions: rat brain synaptosomes, literature
[2] = literature (Leonard 1997)
[3] = mice, literature (Brunello and Racagni 1998)

Row | pharmacological selectivity for inhibiting norepinephrine reuptake compared to serotonin reuptake, ratio of Ki values [1] | Structure (SMILES) | effect in the 8-OH-DPAT hypothermia test [2] | effect on resperine-induced blepharospasm and hypothermia [3]
1 | about 4166 | CNCC(O)CC12CCC(c3ccccc31)c1ccccc12 (stereo not drawn) [oxaprotiline] | – | –
2 | – | CCOc1ccccc1OC(c1ccccc1)C1CNCCO1 (racemic) [Reboxetine, 2-[(2-ethoxyphenoxy)(phenyl)methyl]morpholine] | ineffective | prevent
